Assay in all cases: growth of human tumour cells (NCI), 48 h
In test [1] the test system is DU-145 prostate.
In test [2] the test system is COLO 205 colon.
Test [3] relates to IGROV1 ovarian.
Test [4] concerns OVCAR-8 ovarian.
The test system of test [5] is NCI/ADR-RES ovarian.
For test [6], the system named is NCI-H460 lung.
The subject of test [7] is OVCAR-4 ovarian.
The subject of test [8] is U251 CNS.
For test [9], the system named is SK-MEL-5 melanoma.
Test [10] relates to MDA-N.
Test [11] relates to SK-OV-3 ovarian.
Test [12] deals with ACHN renal.
Test [13] concerns NCI-H23 lung.

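Tested at 5 concentrations; 48 h exposure; 96-well plates; endpoints linearly interpolated, else capped at highest concentration. The concentration for full growth arrest is given as TGI.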 Where only a bound is given, the exact number is not on record here.

In PubChem BioAssay (NCI) one finds TGI data, which are given here for nine compounds.

For the compound `c1ccc(CCCN2C3CCC2CN(CCOC(c2ccccc2)c2ccccc2)C3)cc1`, the TGI was determined as 32 µM in [1]; 4.36 µM in test [2]; 27 µM in test [3]; 23.5 µM in [4]; 21.3 µM in test [5]; 25.8 µM in [6]. In addition, the TGI in test [7] was determined as 28.4 µM; in test [8], 20.6 µM; in test [9] it was 11.8 µM; in [10] it was 25.9 µM; in test [11], 29.3 µM; in [12], 26.2 µM. The same compound had a TGI in test [13] of 23.6 µM.
In the case of `Nc1nc(N)c2cc(-c3cc4ccccc4[nH]3)ccc2n1`, the TGI was 58.8 µM in test [1]; 24 µM in [2]; 33.4 µM in test [3]; over 100 µM in test [4]; over 100 µM in test [5]; 45.8 µM in [6]. Moreover, the TGI in [7] is 63.5 µM; in test [8], over 100 µM; in [9], 30.2 µM; in test [10], 40.7 µM; in test [11], over 100 µM; in test [12], 33.3 µM. Further, the TGI in [13] was over 100 µM.
As to `CCOC(=O)c1ccc(-c2onc(C)c2Br)[nH]1`, the TGI in test [1], in [2], in [3], in test [4], in test [5] and in test [6] was over 100 µM each time. Further, the TGI in [7], in test [8], in test [9], in test [10], in test [11] and in test [12] was over 100 µM in each case. The same compound returned a TGI in test [13] of over 100 µM.
On to `CC1=NN(c2ccccc2)C(=O)/C1=C1\SC(c2ccccc2)(c2ccccc2)c2ccccc21`, for which the TGI in test [1], in [2], in test [3], in test [4], in test [5] and in [6] was over 100 µM each time. Further, the TGI in test [7], in test [8], in test [9], in test [10], in [11] and in test [12] was over 100 µM throughout. For the same compound, the TGI in [13] is over 100 µM.
In the case of `Cc1cccc(C)c1NC(=S)N/C=C(\C#N)C(N)=O`, the TGI in test [1], in test [2], in test [3], in [4], in [5] and in [6] was over 100 µM each time. Also, the TGI in [7], in test [8], in test [9], in test [10], in test [11] and in test [12] was over 100 µM throughout. In [13], this compound returned a TGI of over 100 µM.
As to `O=C(O)CSC1=NCCN1`, the TGI in [1], in test [2], in [3], in test [4], in [5] and in [6] was over 100 µM throughout. Further, the TGI in test [7], in [8], in [9], in test [10], in [11] and in [12] was over 100 µM each time. Moreover, the TGI in test [13] was over 100 µM.
Take `CCO/C(O)=c1/s/c(=C2/SC(=S)N(c3ccc(C)cc3)C2=O)n(-c2ccccc2)c1=N`: the TGI in test [1], in [2], in test [3], in test [4], in [5] and in test [6] was over 100 µM each time. Further, the TGI in test [7] is 44.3 µM; in [8], over 100 µM; in test [9] it was over 100 µM; in test [10] it was over 100 µM; in test [11] it was over 76 µM; in test [12] it was over 100 µM. The same compound came in with a TGI in test [13] of over 100 µM.
For `CCOC(=O)CCCN`, the TGI in test [1], in [2], in test [3], in test [4], in test [5] and in test [6] was over 100 µM each time. In addition, the TGI in test [7], in test [8], in test [9], in test [10], in [11] and in test [12] was over 100 µM each time. Besides, the TGI in test [13] is over 100 µM.
Turning to `O=C1C(NS(=O)(=O)c2ccccc2)=C(n2ccnc2)C(=O)c2ccccc21`, the TGI in [1], in [2], in test [3], in test [4], in test [5] and in test [6] was over 100 µM each time. Besides, the TGI in [7], in test [8], in [9], in test [10], in test [11] and in test [12] was over 100 µM each time. In addition, in test [13], the TGI is over 100 µM.
